Test results as given in ChEMBL document CHEMBL3396992, “Synthesis and biological evaluation of pyrazolylthiazole carboxylic acids as potent anti-inflammatory-antimicrobial agents” (2015).
Converted amounts (≈) assume the structure as drawn. The source made the active and inactive calls. No cut-off for these calls is given here.

What was measured:
Staphylococcus aureus [1] = assay: Antimicrobial activity against Staphylococcus aureus MTCC 96 assessed as growth inhibition at 4 mg/ml after 24 hrs by agar well diffusion method; format: functional
Bacillus subtilis [2] = assay: Antimicrobial activity against Bacillus subtilis MTCC 121 assessed as growth inhibition at 4 mg/ml after 24 hrs by agar well diffusion method; format: functional; settings: MTCC 121, 24 h, read-out: DIZ
Rattus norvegicus [3] = assay: Antiinflammatory activity against carrageenan-induced paw edema male Wistar albino rat assessed as edema volume at 50 mg/kg, po administered 30 mins prior to carrageenan-challenge measured after 1 hr (reference value: 1.11 +/- 0.12 mL); format: functional
Saccharomyces cerevisiae [4] = assay: Antimicrobial activity against Saccharomyces cerevisiae MTCC 170 assessed as growth inhibition after 24 hrs by agar well diffusion method; format: functional
Saccharomyces cerevisiae [5] = assay: Antimicrobial activity against Saccharomyces cerevisiae MTCC 170 assessed as growth inhibition at 4 mg/ml after 24 hrs by agar well diffusion method; format: functional
Rattus norvegicus [6] = assay: Antiinflammatory activity against carrageenan-induced paw edema male Wistar albino rat assessed as edema volume at 50 mg/kg, ip administered 30 mins prior to carrageenan-challenge measured after 3 hrs (reference value: 1.73 +/- 0.09 mL); format: functional; settings: route intraperitoneal
Rattus norvegicus [7] = assay: Antiinflammatory activity against carrageenan-induced paw edema male Wistar albino rat at 50 mg/kg, ip administered 30 mins prior to carrageenan-challenge measured after 2 hrs relative to control; format: functional; settings: route intraperitoneal
Rattus norvegicus [8] = assay: Antiinflammatory activity against carrageenan-induced paw edema male Wistar albino rat at 50 mg/kg, ip administered 30 mins prior to carrageenan-challenge measured after 3 hrs relative to control; format: functional; settings: route intraperitoneal
Escherichia coli = assay: Antimicrobial activity against Escherichia coli MTCC 1652 assessed as growth inhibition at 4 mg/ml after 24 hrs by agar well diffusion method; format: functional, organism-based
Rattus norvegicus [9] = assay: Antiinflammatory activity against carrageenan-induced paw edema male Wistar albino rat at 50 mg/kg, ip administered 30 mins prior to carrageenan-challenge measured after 4 hrs relative to control; format: functional; settings: route intraperitoneal
Rattus norvegicus [10] = assay: Antiinflammatory activity against carrageenan-induced paw edema male Wistar albino rat at 50 mg/kg, ip administered 30 mins prior to carrageenan-challenge measured after 1 hr relative to control; format: functional; settings: route intraperitoneal
Rattus norvegicus [11] = assay: Antiinflammatory activity against carrageenan-induced paw edema male Wistar albino rat assessed as edema volume at 50 mg/kg, ip administered 30 mins prior to carrageenan-challenge measured after 2 hrs (reference value: 1.21 +/- 0.16 mL); format: functional; settings: route intraperitoneal
Rattus norvegicus [12] = assay: Antiinflammatory activity against carrageenan-induced paw edema male Wistar albino rat assessed as edema volume at 50 mg/kg, ip administered 30 mins prior to carrageenan-challenge measured after 4 hrs (reference value: 1.88 +/- 0.20 mL); format: functional; settings: route intraperitoneal
Bacillus subtilis [13] = assay: Antimicrobial activity against Bacillus subtilis MTCC 121 assessed as growth inhibition after 24 hrs by agar well diffusion method; format: functional; settings: MTCC 121, 24 h
Staphylococcus aureus [14] = assay: Antimicrobial activity against Staphylococcus aureus MTCC 96 assessed as growth inhibition after 24 hrs by agar well diffusion method; format: functional
Pseudomonas aeruginosa = settings: MTCC 741, 4 mg/ml
Description: Antimicrobial activity against Pseudomonas aeruginosa MTCC 741 assessed as growth inhibition at 4 mg/ml after 24 hrs by agar well diffusion method

Candida albicans [15] = assay: Antimicrobial activity against Candida albicans MTCC 3017 assessed as growth inhibition after 24 hrs by agar well diffusion method; format: functional; settings: MTCC 3017, 24 h
Candida albicans [16] = assay: Antimicrobial activity against Candida albicans MTCC 3017 assessed as growth inhibition at 4 mg/ml after 24 hrs by agar well diffusion method; format: functional; settings: MTCC 3017, 24 h, read-out: DIZ

## CCOC(=O)c1sc(-c2cn(-c3ccccc3)nc2-c2ccccc2)nc1-c1ccc(OC)cc1
Staphylococcus aureus [1]
  diameter of the inhibition zone (DIZ): inactive
Bacillus subtilis [2]
  zone of inhibition at 4000 µg/mL: 13.6 mm
Rattus norvegicus [3]
  Activity: 0.22 mL
Saccharomyces cerevisiae [4]
  MIC: inactive
Saccharomyces cerevisiae [5]
  diameter of the inhibition zone (DIZ): inactive
Rattus norvegicus [6]
  Activity: 0.24 mL
Rattus norvegicus [7]
  Activity: 76.03%
Rattus norvegicus [8]
  Activity: 86.12%
Escherichia coli
  diameter of the inhibition zone (DIZ): inactive
Rattus norvegicus [9]
  Activity: 81.91%
Rattus norvegicus [10]
  Activity: 80.18%
Rattus norvegicus [11]
  Activity: 0.29 mL
Rattus norvegicus [12]
  Activity: 0.34 mL
Bacillus subtilis [13]
  MIC: 50 µg/mL (≈ 104 µM)
Staphylococcus aureus [14]
  MIC: inactive
Pseudomonas aeruginosa
  DIZ: inactive
Candida albicans [15]
  MIC: 50 µg/mL (≈ 104 µM)
Candida albicans [16]
  zone of inhibition at 4000 µg/mL: 16.3 mm

## CCOC(=O)c1sc(-c2cn(-c3ccccc3)nc2-c2ccc(OC)cc2)nc1-c1ccc(F)cc1
Staphylococcus aureus [1]
  diameter of the inhibition zone (DIZ): inactive
Bacillus subtilis [2]
  zone of inhibition at 4000 µg/mL: 20.6 mm
Rattus norvegicus [3]
  Activity: 0.18 mL
Saccharomyces cerevisiae [4]
  MIC: inactive
Saccharomyces cerevisiae [5]
  diameter of the inhibition zone (DIZ): inactive
Rattus norvegicus [6]
  Activity: 0.31 mL
Rattus norvegicus [7]
  Activity: 85.12%
Rattus norvegicus [8]
  Activity: 82.08%
Escherichia coli
  diameter of the inhibition zone (DIZ): inactive
Rattus norvegicus [9]
  Activity: 80.31%
Rattus norvegicus [10]
  Activity: 83.78%
Rattus norvegicus [11]
  Activity: 0.18 mL
Rattus norvegicus [12]
  Activity: 0.37 mL
Bacillus subtilis [13]
  MIC: 25 µg/mL (≈ 50 µM)
Staphylococcus aureus [14]
  MIC: inactive
Pseudomonas aeruginosa
  DIZ: inactive
Candida albicans [15]
  MIC: 12.5 µg/mL (≈ 25 µM)
Candida albicans [16]
  zone of inhibition at 4000 µg/mL: 24.6 mm

## CCOC(=O)c1sc(-c2cn(-c3ccccc3)nc2-c2ccc(Cl)cc2)nc1-c1ccc(F)cc1
Staphylococcus aureus [1]; MTCC 96, 24 h, read-out: DIZ
  zone of inhibition at 4000 µg/mL: 12 mm
Bacillus subtilis [2]
  zone of inhibition at 4000 µg/mL: 13.3 mm
Rattus norvegicus [3]
  Activity: 0.18 mL
Saccharomyces cerevisiae [4]
  MIC: inactive
Saccharomyces cerevisiae [5]
  diameter of the inhibition zone (DIZ): inactive
Rattus norvegicus [6]
  Activity: 0.5 mL
Rattus norvegicus [7]
  Activity: 61.15%
Rattus norvegicus [8]
  Activity: 71.09%
Escherichia coli
  diameter of the inhibition zone (DIZ): inactive
Rattus norvegicus [9]
  Activity: 89.89%
Rattus norvegicus [10]
  Activity: 83.78%
Rattus norvegicus [11]
  Activity: 0.47 mL
Rattus norvegicus [12]
  Activity: 0.19 mL
Bacillus subtilis [13]
  MIC: 50 µg/mL (≈ 99.2 µM)
Staphylococcus aureus [14]; MTCC 96, 24 h
  MIC: 50 µg/mL (≈ 99.2 µM)
Pseudomonas aeruginosa
  DIZ: inactive
Candida albicans [15]
  MIC: 50 µg/mL (≈ 99.2 µM)
Candida albicans [16]
  zone of inhibition at 4000 µg/mL: 17.6 mm

## CCOC(=O)c1sc(-c2cn(-c3ccccc3)nc2-c2ccc(OC)cc2)nc1-c1ccccc1
Staphylococcus aureus [1]
  diameter of the inhibition zone (DIZ): inactive
Bacillus subtilis [2]
  zone of inhibition at 4000 µg/mL: 15 mm
Rattus norvegicus [3]
  Activity: 0.11 mL
Saccharomyces cerevisiae [4]
  MIC: inactive
Saccharomyces cerevisiae [5]
  diameter of the inhibition zone (DIZ): inactive
Rattus norvegicus [6]
  Activity: 0.33 mL
Rattus norvegicus [7]
  Activity: 83.47%
Rattus norvegicus [8]
  Activity: 80.92%
Escherichia coli
  diameter of the inhibition zone (DIZ): inactive
Rattus norvegicus [9]
  Activity: 90.95%
Rattus norvegicus [10]
  Activity: 90.19%
Rattus norvegicus [11]
  Activity: 0.2 mL
Rattus norvegicus [12]
  Activity: 0.24 mL
Bacillus subtilis [13]
  MIC: 50 µg/mL (≈ 104 µM)
Staphylococcus aureus [14]
  MIC: inactive
Pseudomonas aeruginosa
  DIZ: inactive
Candida albicans [15]
  MIC: 25 µg/mL (≈ 51.9 µM)
Candida albicans [16]
  zone of inhibition at 4000 µg/mL: 18.3 mm

## CCOC(=O)c1sc(-c2cn(-c3ccccc3)nc2-c2ccc(F)cc2)nc1-c1ccc(F)cc1
Staphylococcus aureus [1]
  diameter of the inhibition zone (DIZ): inactive
Bacillus subtilis [2]
  zone of inhibition at 4000 µg/mL: 15.6 mm
Rattus norvegicus [3]
  Activity: 0.16 mL
Saccharomyces cerevisiae [4]
  MIC: inactive
Saccharomyces cerevisiae [5]
  diameter of the inhibition zone (DIZ): inactive
Rattus norvegicus [6]
  Activity: 0.32 mL
Rattus norvegicus [7]
  Activity: 79.33%
Rattus norvegicus [8]
  Activity: 81.5%
Escherichia coli
  diameter of the inhibition zone (DIZ): inactive
Rattus norvegicus [9]
  Activity: 87.76%
Rattus norvegicus [10]
  Activity: 85.58%
Rattus norvegicus [11]
  Activity: 0.25 mL
Rattus norvegicus [12]
  Activity: 0.23 mL
Bacillus subtilis [13]
  MIC: 50 µg/mL (≈ 103 µM)
Staphylococcus aureus [14]
  MIC: inactive
Pseudomonas aeruginosa
  DIZ: inactive
Candida albicans [15]
  MIC: 12.5 µg/mL (≈ 25.6 µM)
Candida albicans [16]
  zone of inhibition at 4000 µg/mL: 22.6 mm

## CCOC(=O)c1sc(-c2cn(-c3ccccc3)nc2-c2ccc(Cl)cc2)nc1-c1ccc(OC)cc1
Staphylococcus aureus [1]
  diameter of the inhibition zone (DIZ): inactive
Bacillus subtilis [2]
  zone of inhibition at 4000 µg/mL: 15.3 mm
Rattus norvegicus [3]
  Activity: 0.1 mL
Saccharomyces cerevisiae [4]
  MIC: inactive
Saccharomyces cerevisiae [5]
  diameter of the inhibition zone (DIZ): inactive
Rattus norvegicus [6]
  Activity: 0.25 mL
Rattus norvegicus [7]
  Activity: 71.07%
Rattus norvegicus [8]
  Activity: 85.54%
Escherichia coli
  diameter of the inhibition zone (DIZ): inactive
Rattus norvegicus [9]
  Activity: 88.92%
Rattus norvegicus [10]
  Activity: 90.99%
Rattus norvegicus [11]
  Activity: 0.35 mL
Rattus norvegicus [12]
  Activity: 0.21 mL
Bacillus subtilis [13]
  MIC: 50 µg/mL (≈ 96.9 µM)
Staphylococcus aureus [14]
  MIC: inactive
Pseudomonas aeruginosa
  DIZ: inactive
Candida albicans [15]
  MIC: 50 µg/mL (≈ 96.9 µM)
Candida albicans [16]
  zone of inhibition at 4000 µg/mL: 15.3 mm
